Measured values reported in ChEMBL document CHEMBL6103656, “Discovery of BT-114143, a Novel and Potent Phosphoric Acid-Containing Small-Molecule Plasminogen Activation Inhibitor for Hyperfibrinolysis” (J Med Chem, 2025).
Activity calls are given as the source filed them. No cut-off for these calls is given here.

Key:
[1] = test system: Blood; experiment: Ratio of compound IC50 to TXA IC50 in anti-fibrinolytic activity in healthy human fresh blood by plasma clot lysis; type: functional
[2] = molecular target: T1, Plasminogen (Homo sapiens, UniProt P00747); experiment: Inhibition of plasminogen activation assessed as inhibition of recombinant human tissue plasminogen activator (rt-PA)-induced clot lysis measured after clot lysis pre-incubated for 15 mins by buffer clot lysis assay
T1 sequence (P00747 97-580 limits assumed): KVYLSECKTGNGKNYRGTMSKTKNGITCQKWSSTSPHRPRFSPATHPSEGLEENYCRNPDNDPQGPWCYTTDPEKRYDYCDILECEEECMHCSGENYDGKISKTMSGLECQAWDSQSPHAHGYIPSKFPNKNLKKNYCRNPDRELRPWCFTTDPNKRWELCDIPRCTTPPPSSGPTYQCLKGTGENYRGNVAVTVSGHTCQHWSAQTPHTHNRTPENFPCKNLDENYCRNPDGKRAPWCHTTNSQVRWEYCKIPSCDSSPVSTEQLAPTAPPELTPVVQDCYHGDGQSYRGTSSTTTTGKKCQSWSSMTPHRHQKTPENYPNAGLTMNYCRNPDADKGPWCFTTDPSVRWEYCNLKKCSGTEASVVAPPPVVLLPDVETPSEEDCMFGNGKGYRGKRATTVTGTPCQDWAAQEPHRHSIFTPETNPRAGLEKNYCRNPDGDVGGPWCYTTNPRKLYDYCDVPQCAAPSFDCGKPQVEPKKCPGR
T1 sequence (P00747 581-810 limits assumed): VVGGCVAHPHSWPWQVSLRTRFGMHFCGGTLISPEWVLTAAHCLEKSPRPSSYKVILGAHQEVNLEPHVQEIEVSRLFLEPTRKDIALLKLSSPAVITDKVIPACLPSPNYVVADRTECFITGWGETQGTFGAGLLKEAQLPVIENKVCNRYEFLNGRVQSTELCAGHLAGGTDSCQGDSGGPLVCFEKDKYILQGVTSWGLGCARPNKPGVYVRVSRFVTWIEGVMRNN

[3] = molecular target: Tissue-type plasminogen activator (Homo sapiens) (UniProt P00750); experiment: Inhibition of recombinant human tissue plasminogen activator (rt-PA)-induced fibrinolysis in human fresh whole blood assessed as thrombus dissolution within 30 mins after reaching maximum amplitude (LY30) by thromboelastography analysis; type: functional, tissue-based
Chain of Tissue-type plasminogen activator (Homo sapiens) (P00750 36-562 limits assumed): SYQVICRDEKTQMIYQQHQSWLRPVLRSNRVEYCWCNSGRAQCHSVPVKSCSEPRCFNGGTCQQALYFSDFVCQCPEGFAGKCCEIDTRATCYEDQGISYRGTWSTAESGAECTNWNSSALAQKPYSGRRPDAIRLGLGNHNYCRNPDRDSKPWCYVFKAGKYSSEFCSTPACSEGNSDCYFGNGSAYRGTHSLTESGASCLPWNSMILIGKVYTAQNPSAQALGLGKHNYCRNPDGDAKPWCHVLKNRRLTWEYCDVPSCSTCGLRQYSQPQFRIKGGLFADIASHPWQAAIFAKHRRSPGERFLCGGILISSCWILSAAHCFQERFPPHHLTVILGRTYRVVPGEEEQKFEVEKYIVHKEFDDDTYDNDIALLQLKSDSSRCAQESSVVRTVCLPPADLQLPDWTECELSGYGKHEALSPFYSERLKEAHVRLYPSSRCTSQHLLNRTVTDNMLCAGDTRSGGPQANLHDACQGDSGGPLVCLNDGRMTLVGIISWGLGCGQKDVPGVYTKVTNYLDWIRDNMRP

[4] = molecular target: T1, Plasminogen; experiment: Binding affinity to biotinylated Plasminogen (unknown origin) assessed as dissociation constant by surface plasmon resonance (SPR) analysis
[5] = (§1) Inhibition of Plasminogen (unknown origin) binding to fibrin (unknown origin) interaction by surface plasmon resonance (SPR) analysis; set-up: species or system Homo sapiens
[6] = organism: Homo sapiens; experiment: as §1
[7] = Half life in Sprague-Dawley rat at 2 mg/kg, iv measured upto 24 hrs by LC-MS/MS analysis; type: ADME, organism-based; settings: in vivo
[8] = Half life in beagle dog at 2 mg/kg, iv measured upto 24 hrs by LC-MS/MS analysis; type: ADME, organism-based, Canis lupus familiaris; settings: in vivo
[9] = Half life in Sprague-Dawley rat at 2 mg/kg, IM measured upto 24 hrs by LC-MS/MS analysis; type: ADME, organism-based; settings: in vivo
[10] = Half life in beagle dog at 2 mg/kg, IM measured upto 24 hrs by LC-MS/MS analysis; type: ADME, organism-based, Canis lupus familiaris; settings: in vivo
[11] = AUC (0 to infinity) in Sprague-Dawley rat at 2 mg/kg, iv measured upto 24 hrs by LC-MS/MS analysis; type: ADME, organism-based; settings: in vivo
[12] = AUC (0 to infinity) in beagle dog at 2 mg/kg, iv measured upto 24 hrs by LC-MS/MS analysis; type: ADME, organism-based, Canis lupus familiaris; settings: in vivo
[13] = AUC (0 to infinity) in Sprague-Dawley rat at 2 mg/kg, IM measured upto 24 hrs by LC-MS/MS analysis; type: ADME, organism-based; settings: in vivo
[14] = AUC (0 to infinity) in beagle dog at 2 mg/kg, IM measured upto 24 hrs by LC-MS/MS analysis; type: ADME, organism-based, Canis lupus familiaris; settings: in vivo
[15] = Volume of distribution at steady state in Sprague-Dawley rat at 2 mg/kg, iv measured upto 24 hrs by LC-MS/MS analysis; type: ADME, organism-based; settings: in vivo, read-out: Vdss
[16] = Volume of distribution at steady state in beagle dog at 2 mg/kg, iv measured upto 24 hrs by LC-MS/MS analysis; type: ADME, organism-based, Canis lupus familiaris; settings: in vivo
[17] = Clearance in Sprague-Dawley rat at 2 mg/kg, iv measured upto 24 hrs by LC-MS/MS analysis; type: ADME, organism-based; settings: in vivo
[18] = test system: Rattus norvegicus; experiment: Hemostatic effect in rt-PA enhanced Sprague-Dawley rat tail bleeding model assessed as reduction in tail bleeding time at 5 mg/kg infused into right jugular vein; type: functional, organism-based; settings: route iv
[19] = test system: Rattus norvegicus; experiment: Hemostatic effect in rt-PA enhanced Sprague-Dawley rat tail bleeding model assessed as reduction in tail bleeding time at 40 mg/kg infused into right jugular vein; type: functional, organism-based; settings: route iv
[20] = molecular target: Tissue-type plasminogen activator (Rattus norvegicus) (UniProt P19637); experiment: Inhibition of recombinant tissue plasminogen activator (rt-PA)-induced fibrinolysis in Sprague-Dawley rat fresh whole blood assessed as thrombus dissolution within 30 mins after reaching maximum amplitude (LY30) at > 3 uM by thromboelastography analysis; type: functional, tissue-based
Chain of Tissue-type plasminogen activator (Rattus norvegicus) (P19637 whole entry): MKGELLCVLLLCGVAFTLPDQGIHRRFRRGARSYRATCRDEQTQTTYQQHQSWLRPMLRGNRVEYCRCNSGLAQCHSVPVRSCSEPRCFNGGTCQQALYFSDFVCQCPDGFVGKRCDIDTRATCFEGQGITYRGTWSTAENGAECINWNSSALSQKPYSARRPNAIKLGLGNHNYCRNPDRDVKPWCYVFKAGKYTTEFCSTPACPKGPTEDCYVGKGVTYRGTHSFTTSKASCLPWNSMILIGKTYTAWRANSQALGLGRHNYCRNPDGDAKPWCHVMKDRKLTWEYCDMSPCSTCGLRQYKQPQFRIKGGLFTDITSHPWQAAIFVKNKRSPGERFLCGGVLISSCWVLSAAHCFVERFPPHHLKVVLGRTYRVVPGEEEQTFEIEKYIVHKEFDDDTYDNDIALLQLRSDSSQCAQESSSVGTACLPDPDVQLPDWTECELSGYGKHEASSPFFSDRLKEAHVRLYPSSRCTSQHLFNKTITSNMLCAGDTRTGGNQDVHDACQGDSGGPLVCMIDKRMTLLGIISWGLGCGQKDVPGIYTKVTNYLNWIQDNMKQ

[21] = molecular target: Voltage-gated inwardly rectifying potassium channel KCNH2 (Homo sapiens, UniProt Q12809); experiment: Inhibition of hERG; type: toxicity
Chain of Voltage-gated inwardly rectifying potassium channel KCNH2 (Q12809 whole entry): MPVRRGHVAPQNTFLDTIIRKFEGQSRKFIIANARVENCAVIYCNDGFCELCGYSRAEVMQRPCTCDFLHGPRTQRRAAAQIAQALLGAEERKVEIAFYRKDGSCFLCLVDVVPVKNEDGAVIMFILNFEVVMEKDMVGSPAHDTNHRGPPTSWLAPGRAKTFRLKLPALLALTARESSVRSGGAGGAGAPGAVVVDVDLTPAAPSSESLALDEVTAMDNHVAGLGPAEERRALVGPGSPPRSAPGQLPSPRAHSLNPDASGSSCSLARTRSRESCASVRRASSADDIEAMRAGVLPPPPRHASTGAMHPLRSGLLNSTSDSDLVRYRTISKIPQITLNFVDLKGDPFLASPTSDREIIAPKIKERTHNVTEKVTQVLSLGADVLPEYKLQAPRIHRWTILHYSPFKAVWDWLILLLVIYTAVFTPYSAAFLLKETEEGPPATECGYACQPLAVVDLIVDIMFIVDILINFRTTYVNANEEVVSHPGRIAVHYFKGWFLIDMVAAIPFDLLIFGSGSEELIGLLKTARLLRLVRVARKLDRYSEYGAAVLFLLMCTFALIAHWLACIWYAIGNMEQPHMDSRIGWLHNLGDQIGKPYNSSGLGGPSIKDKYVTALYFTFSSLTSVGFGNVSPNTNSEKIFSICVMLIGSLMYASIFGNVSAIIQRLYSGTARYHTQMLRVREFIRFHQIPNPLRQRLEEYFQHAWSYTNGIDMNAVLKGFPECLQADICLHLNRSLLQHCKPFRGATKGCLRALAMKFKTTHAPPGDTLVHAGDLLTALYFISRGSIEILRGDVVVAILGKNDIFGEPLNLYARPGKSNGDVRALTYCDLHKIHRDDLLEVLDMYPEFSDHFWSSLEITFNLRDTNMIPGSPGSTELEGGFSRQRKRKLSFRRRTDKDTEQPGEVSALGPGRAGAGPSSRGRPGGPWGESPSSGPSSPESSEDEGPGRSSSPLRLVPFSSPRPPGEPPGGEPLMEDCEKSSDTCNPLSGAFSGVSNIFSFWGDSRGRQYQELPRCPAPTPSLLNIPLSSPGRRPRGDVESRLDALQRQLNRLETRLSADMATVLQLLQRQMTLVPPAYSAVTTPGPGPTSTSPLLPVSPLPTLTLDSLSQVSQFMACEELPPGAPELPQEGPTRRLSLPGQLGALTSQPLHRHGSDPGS

[22] = molecular target: T2, GABA-A receptor; alpha-1/beta-2/gamma-2 (Homo sapiens, UniProt P14867+P18507+P47870); experiment: Inhibition of GABA-A receptor alpha1beta2gamma2 (unknown origin); type: toxicity
T2 sequence (P14867 whole entry): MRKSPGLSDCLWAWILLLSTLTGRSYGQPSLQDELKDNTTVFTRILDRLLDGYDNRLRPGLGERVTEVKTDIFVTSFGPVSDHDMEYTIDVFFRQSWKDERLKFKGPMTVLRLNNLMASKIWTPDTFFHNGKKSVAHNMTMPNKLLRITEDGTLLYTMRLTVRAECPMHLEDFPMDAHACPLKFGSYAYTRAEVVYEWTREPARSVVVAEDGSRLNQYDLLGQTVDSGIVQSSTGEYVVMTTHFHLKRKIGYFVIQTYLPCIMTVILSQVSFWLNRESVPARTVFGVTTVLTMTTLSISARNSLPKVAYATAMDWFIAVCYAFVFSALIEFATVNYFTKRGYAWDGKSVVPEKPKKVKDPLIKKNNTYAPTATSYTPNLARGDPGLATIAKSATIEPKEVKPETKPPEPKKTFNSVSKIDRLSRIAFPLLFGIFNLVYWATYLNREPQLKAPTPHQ
T2 sequence (P47870 whole entry): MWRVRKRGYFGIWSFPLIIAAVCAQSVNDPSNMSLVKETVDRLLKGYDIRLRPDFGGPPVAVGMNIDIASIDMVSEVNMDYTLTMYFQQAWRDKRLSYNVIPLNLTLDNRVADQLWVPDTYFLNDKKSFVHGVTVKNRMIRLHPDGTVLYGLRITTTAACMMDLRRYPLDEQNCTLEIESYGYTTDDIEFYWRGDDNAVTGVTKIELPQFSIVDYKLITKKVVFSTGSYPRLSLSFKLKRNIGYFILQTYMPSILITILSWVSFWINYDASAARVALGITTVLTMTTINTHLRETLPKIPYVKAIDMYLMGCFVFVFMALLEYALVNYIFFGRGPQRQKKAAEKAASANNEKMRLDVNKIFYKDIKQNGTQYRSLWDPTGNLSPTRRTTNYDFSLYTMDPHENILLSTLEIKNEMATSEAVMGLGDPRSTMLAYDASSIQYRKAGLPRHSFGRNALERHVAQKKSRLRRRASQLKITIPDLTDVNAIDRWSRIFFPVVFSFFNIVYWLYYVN
T2 sequence (P18507 whole entry): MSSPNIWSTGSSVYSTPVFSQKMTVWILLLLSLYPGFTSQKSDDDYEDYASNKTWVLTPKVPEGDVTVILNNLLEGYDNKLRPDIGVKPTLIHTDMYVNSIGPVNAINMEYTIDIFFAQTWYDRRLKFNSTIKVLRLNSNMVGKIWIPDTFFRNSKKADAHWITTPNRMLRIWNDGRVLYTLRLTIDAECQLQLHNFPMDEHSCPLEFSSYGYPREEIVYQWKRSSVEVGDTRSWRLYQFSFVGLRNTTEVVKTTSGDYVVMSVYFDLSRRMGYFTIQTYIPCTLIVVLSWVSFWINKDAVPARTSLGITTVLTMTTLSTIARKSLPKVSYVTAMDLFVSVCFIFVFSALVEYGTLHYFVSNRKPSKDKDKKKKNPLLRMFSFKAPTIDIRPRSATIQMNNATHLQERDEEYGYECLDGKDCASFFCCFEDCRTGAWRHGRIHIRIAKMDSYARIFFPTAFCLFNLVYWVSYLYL

[23] = molecular target: Glycine receptor (alpha-1/beta) (Homo sapiens, UniProt P23415+P48167); experiment: Inhibition of glycine receptor alpha1beta (unknown origin); type: toxicity
Chain of Glycine receptor (alpha-1/beta) (P23415 whole entry): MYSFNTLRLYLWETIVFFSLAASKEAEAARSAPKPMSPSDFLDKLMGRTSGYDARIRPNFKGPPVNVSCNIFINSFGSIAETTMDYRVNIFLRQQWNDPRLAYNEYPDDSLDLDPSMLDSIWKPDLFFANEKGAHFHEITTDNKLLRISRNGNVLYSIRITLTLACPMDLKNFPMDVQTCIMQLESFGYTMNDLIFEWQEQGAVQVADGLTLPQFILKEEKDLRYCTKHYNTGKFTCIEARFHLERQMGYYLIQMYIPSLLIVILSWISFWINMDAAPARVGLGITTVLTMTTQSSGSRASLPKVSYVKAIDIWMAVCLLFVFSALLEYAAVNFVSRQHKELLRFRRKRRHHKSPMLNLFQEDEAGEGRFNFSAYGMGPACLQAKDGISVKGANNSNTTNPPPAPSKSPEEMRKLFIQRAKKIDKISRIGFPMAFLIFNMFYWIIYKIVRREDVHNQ
Chain of Glycine receptor (alpha-1/beta) (P48167 whole entry): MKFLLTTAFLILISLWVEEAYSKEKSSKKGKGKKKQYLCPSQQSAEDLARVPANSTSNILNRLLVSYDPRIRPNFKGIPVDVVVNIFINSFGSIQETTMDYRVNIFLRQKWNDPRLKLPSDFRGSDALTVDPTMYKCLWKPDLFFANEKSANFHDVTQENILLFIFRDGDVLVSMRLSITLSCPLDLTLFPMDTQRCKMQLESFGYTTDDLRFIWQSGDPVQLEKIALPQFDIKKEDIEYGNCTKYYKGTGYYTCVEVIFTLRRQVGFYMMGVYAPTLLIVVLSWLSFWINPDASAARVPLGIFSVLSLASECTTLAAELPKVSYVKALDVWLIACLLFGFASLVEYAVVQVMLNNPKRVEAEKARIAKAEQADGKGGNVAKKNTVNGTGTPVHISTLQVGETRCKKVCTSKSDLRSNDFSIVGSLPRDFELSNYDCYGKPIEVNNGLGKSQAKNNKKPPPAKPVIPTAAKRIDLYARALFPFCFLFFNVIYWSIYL

[24] = Maximum tolerated dose in Sprague-Dawley rat treated intravenously twice a day; type: toxicity, organism-based; settings: in vivo, route iv
[25] = Maximum tolerated dose in beagle dog treated intravenously twice a day; type: toxicity, organism-based, Canis lupus familiaris; settings: in vivo, route iv
[26] = Toxicity in Sprague-Dawley rat assessed as no observed adverse effect level (NOAEL) treated for 14 days; settings: in vivo, time 14 day
[27] = Toxicity in beagle dog assessed as no observed adverse effect level (NOAEL) treated for 14 days; set-up: species or system Canis lupus familiaris; settings: in vivo, time 14 day
[28] = Toxicity in CHO cells assessed as mutagenic effect by chromosome aberration test; type: cell-based, Cricetulus griseus; settings: chinese hamster
[29] = Toxicity in rat peripheral blood cells assessed as clastogenic effect by micronucleus test; type: cell-based; settings: erythrocyte

With Cl.O=P(O)(O)c1ccc2c(n1)CCNC2 the “Ratio IC50” value [1] was 0.19, the IC50 [2] was 8.42 µM and the IC90 [3] was 1010 nM. For the same molecule, the Kd [4] was 21.1 µM, the IC50 [5] was 1480 nM and the IC90 [6] was 4.71 µM. For the same molecule, the half-life [7] was 152 min, the t1/2 [8] was 11.1 h and the half-life [9] was 145 min. For the same molecule, the half-life [10] was 768 min, the AUC(0-inf) [11] was 11600 ng·h/mL and the AUC [12] was 16600 ng·h/mL. The AUC(0-inf) [13] was 14200 ng·h/mL, the AUC(0-inf) [14] was 16500 ng·h/mL and the Vd [15] was 0.473 L/kg. For the same molecule, the Vdss [16] was 0.96 L/kg, the clearance [17] was 2.64 mL/min/kg and the Activity [18] was “Active”. For the same molecule, the Activity [19] was “Active”, the inhibition [20] was “Active” and the IC50 [21] was over 300 µM. The IC50 [22] was 782 µM, the IC50 [23] was 540 µM and the MTD [24] was over 500 mg/kg. For the same molecule, the MTD [25] was over 500 mg/kg, the NOAEL at 336 h [26] was 60 mg/kg and the NOAEL at 336 h [27] was 70 mg/kg. The Activity [28] was “Non-toxic” and the Activity [29] was “Non-toxic”.
